From the METLIN SMRT retention time set (Domingo-Almenara et al. 2019) come the findings set out here.

Structures are written as SMILES.

A short description of the data set: gradient 5% acetonitrile 3 min, to 50% in 2 min, to 85% in 15 min, held 3 min, 100 µL/min. Particulars: column: Zorbax Extend-C18 2.1 x 50 mm; eluents: water / acetonitrile, 0.1% formic acid. The method in brief:
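Pure standards were analyzed in mixtures of ~100 molecules using HPLC coupled to a quadrupole time-of-flight mass spectrometer, in both positive and negative ionization mode. Separation used a Zorbax Extend-C18 column (2.1 × 50 mm, 1.8 μm) at 100 μL/min, with water and acetonitrile each containing 0.1% formic acid. Dead and dwell volumes were 40 μL and 900 μL, and data were collected over 3 months. Retention time was read from computationally picked adduct peaks, each inspected manually.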
Compound `CCN1C(=O)COc2cc(-c3noc(C(=O)NCCc4ccccc4)n3)ccc21` displayed an RP-LC retention time of 953 s.

For `CC(=O)c1ccc(N2CCN(C(=O)c3ccc(-n4cccn4)nn3)CC2)cc1`, the RP-LC retention time worked out at 695 s.

As for `COc1ccccc1C(CNC(=O)c1cc(=O)c2cc(C)c(C)cc2o1)N(C)C` (stereo not given), the RP-LC retention time is 651 s.

`Cc1nn(CCC(=O)Nc2cccc(Cl)c2)c(=O)c2nn(-c3ccccc3)c(C)c12` gave an RP-LC retention time of 867 s.

`Cc1ccsc1C(=O)N1CCC(n2cnnc2-c2ccccc2)C1` (stereo not given) came in with an RP-LC retention time of 662 s.

For `Cc1cc(C)n(-c2ccnc(N3CCC(C(=O)NCc4ccccc4)CC3)n2)n1`, the RP-LC retention time turned out to be 832 s.

`CC1CCCC(NC(=O)Cn2cnc3c(nc4n3CCCCC4)c2=O)C1C` (stereo not given) displayed an RP-LC retention time of 711 s.

For the compound `CCC(=O)N1CCCC(c2ccnc(Nc3ccc(C)cc3)n2)C1` (stereo not given), the RP-LC retention time was determined as 827 s.

With `CCc1noc(C2(NC(=O)c3ccccc3Cl)CCCCC2)n1`, the RP-LC retention time is 936 s.

For the compound `Cc1c(C(=O)N2CCSCC2)cnn1-c1ccc(-c2nc(C(C)(C)C)no2)cn1`, the RP-LC retention time worked out at 1070 s.

Turning to `COc1cccc(-c2nc(Cc3nc(-c4ccccc4OC)oc3C)no2)c1`, the RP-LC retention time came to 1030 s.

For the compound `COc1ccccc1-c1noc(C2CCCN2C(=O)COc2ccccc2C)n1` (stereo not given), the RP-LC retention time was found to be 939 s.

On to `Cc1cc2c(cc1S(=O)(=O)N1CCCC1C(=O)NC1CCCCCCC1)OCC(=O)N2` (stereo not given), for which the RP-LC retention time worked out at 834 s.

Regarding `COc1ccc(OC)c(NC(=O)Cc2csc3nc(-c4ccc(C)c(C)c4)cn23)c1`, the RP-LC retention time stood at 772 s.

Compound `CCOC(=O)c1cccc(Nc2c(-c3ccc(N(C)C)cc3)nc3cnccn23)c1` yielded an RP-LC retention time of 837 s.

`COc1ccc(-c2ccc(=O)n(CCNC(=O)NC3CCCCC3)n2)cc1` had an RP-LC retention time of 681 s.

`CC(C)n1cnc2cc(CNC(=O)c3ccc(F)cc3Cl)ccc21`: the RP-LC retention time was 619 s.

`CC1CCC(NC(=O)c2cn(-c3ccc(NC(=O)C4CC4)cn3)cn2)CC1` (stereo not given) returned an RP-LC retention time of 790 s.

`Cc1ccc2nc(N3CCNCC3)c(-c3noc(-c4ccccc4)n3)cc2c1`: the RP-LC retention time was 770 s.

`Cc1cccc(NC(=O)Cn2cnc(-c3nc(C)cs3)c2)c1` came in with an RP-LC retention time of 687 s.

In turn, `COc1ccc(CNC(=O)c2ccc3c(c2)CC(=O)N3C)cc1` gave an RP-LC retention time of 696 s.

Turning to `O=c1c(NCc2ccccc2Cl)nc2ccncc2n1Cc1ccccc1`, the RP-LC retention time was determined as 747 s.

The compound `CCCOc1nc2ccccc2nc1N1CCCC(C(=O)NC2CCCC2)C1` (stereo not given) displayed an RP-LC retention time of 1180 s.

The compound `CCOC(=O)c1c(C)c(CCC(=O)NCCN2CCCCC2)c(C)n1C` came in with an RP-LC retention time of 573 s.

`Cn1c(=O)sc2cc(S(=O)(=O)N3CCC(C(=O)N4CCC5(CC4)OCCO5)CC3)ccc21`: the RP-LC retention time was 709 s.

As for `N#Cc1c(NC(=O)c2ccc([N+](=O)[O-])cc2Cl)sc2c1CCCC2`, the RP-LC retention time turned out to be 1050 s.

For `COc1ccc(Cn2nnc(C(=O)N3CCSCC3)c2-n2cccc2)cc1`, the RP-LC retention time stood at 884 s.

Compound `COc1ccccc1-c1nnc(-c2ccc(Cl)c(S(=O)(=O)N(C)C)c2)o1` registered an RP-LC retention time of 913 s.

For `Cc1ccccc1S(=O)(=O)N1CCn2c(nn(CC3CC3)c2=O)C1`, the RP-LC retention time is 766 s.

`CCCc1nnsc1C(=O)N1CC(c2nc(Cc3ccccc3OC)no2)C1`: the RP-LC retention time was 898 s.

`O=C(NCc1ccccc1)c1ccc2c(c1)CCN2C(=O)C1CC1` yielded an RP-LC retention time of 794 s.

Compound `CCC(=O)N1c2ccc(S(=O)(=O)N3CCCCC3)cc2CC1C(=O)NCc1ccccc1C` (stereo not given) yielded an RP-LC retention time of 916 s.

For `COc1ccccc1NC(=O)N1CCc2[nH]cnc2C1c1ccncc1` (stereo not given), the RP-LC retention time turned out to be 540 s.

In turn, `Cc1nnsc1C(=O)N1CCC(c2nnc(-c3ccco3)o2)CC1` returned an RP-LC retention time of 617 s.

As for `CCc1ccc(NS(=O)(=O)c2c(C)sc(C)c2-c2cc(C)[nH]n2)cc1`, the RP-LC retention time turned out to be 1130 s.

As for `Cc1nc2cc(-c3noc(C4CC(=O)N(c5ccccc5)C4)n3)ccc2n(C2CCCC2)c1=O` (stereo not given), the RP-LC retention time worked out at 1030 s.

In turn, `CCC(=O)N(C1CCOCC1)C1CCN(Cc2cc(F)c(F)c(F)c2)CC1` yielded an RP-LC retention time of 625 s.

In turn, `Cc1noc(-c2ccc(OC3CN(C(=O)Cc4cccs4)C3)cc2)n1` displayed an RP-LC retention time of 857 s.

In turn, `COC(=O)CNC(=O)N1c2ccccc2CC1c1nc(C(C)C)no1` (stereo not given) registered an RP-LC retention time of 834 s.

On to `CN(C)C(=O)c1n[nH]c2c1CN(C(=O)c1cc(F)cc(F)c1)CC2`, for which the RP-LC retention time amounted to 635 s.

For the compound `CCOC(=O)c1cnc2nc(C)ccc2c1Nc1cc(OC)ccc1OC`, the RP-LC retention time worked out at 709 s.

Turning to `CCc1ccc(C2=C(C)C(N3CCCN(C(=O)NCC(C)C)CC3)=NS2(=O)=O)cc1`, the RP-LC retention time was 842 s.

Compound `CN(C)c1ccc(C(=O)Nc2cnc(N3CCCC3)nc2)cc1` displayed an RP-LC retention time of 702 s.

Regarding `CO/N=C1/CN(c2nc3c(cc2F)c(=O)c(C(=O)O)cn3C2CC2)CC1CN` (stereo not given), the RP-LC retention time came out at 636 s.

`COc1ccc(NC(=O)c2csc(-c3ccc(C)n3C)n2)c(OC)c1` registered an RP-LC retention time of 1200 s.

The compound `CC(C)(CO)NCc1ccc(-c2cccc(C(F)(F)F)c2)o1` gave an RP-LC retention time of 660 s.

With `CCn1cc(CCNC(=O)c2sccc2C)c2cccnc21`, the RP-LC retention time was 705 s.

Turning to `CCN1C(=O)C(C)(C(=O)Nc2ccccc2)Oc2cccnc21` (stereo not given), the RP-LC retention time was 859 s.

`Cc1nnc(N2CCCC(C(=O)NCCCN3CCCCCC3)C2)c2nn(-c3ccccc3)c(C)c12` (stereo not given) showed an RP-LC retention time of 586 s.

For `O=C(Nc1nc2c(Cl)cccc2s1)C1COc2ccccc2O1` (stereo not given), the RP-LC retention time stood at 983 s.

`Cc1cccc(OCc2nc(-c3cccc(-c4csc(C5CC5)n4)c3)no2)c1` displayed an RP-LC retention time of 1430 s.

The compound `Cc1ccnc(N2CCCC(C(=O)N3CCC(Cc4ccccc4)CC3)C2)n1` (stereo not given) showed an RP-LC retention time of 987 s.

The compound `Cc1nc(-c2cnccn2)n(CC(=O)Nc2ccccc2)c(=O)c1C` had an RP-LC retention time of 704 s.

Compound `Cc1nc(-c2ccc(S(=O)(=O)N3CCN(c4ccccn4)CC3)cc2)co1` gave an RP-LC retention time of 640 s.

For `COc1ccc(S(=O)(=O)N2CCCC(C(=O)Nc3ccc4c(c3)OCCO4)C2)cc1C` (stereo not given), the RP-LC retention time was found to be 958 s.

Regarding `CN1CCc2nnc(C3CCN(C(=O)Nc4ccc(Cl)cc4F)C3)n2CC1` (stereo not given), the RP-LC retention time turned out to be 573 s.

With `CCOC(=O)c1noc2ncnc(NC3CCCc4ccccc43)c12` (stereo not given), the RP-LC retention time was 1120 s.

Compound `Cc1noc2ncn(CC(=O)NCc3ccccc3F)c(=O)c12` registered an RP-LC retention time of 705 s.

The compound `COc1cc(CN2CC(Oc3ccc(-c4noc(-c5ccncc5)n4)cc3)C2)cc(OC)c1` showed an RP-LC retention time of 728 s.

Consider `COc1cc(Cl)c(NS(=O)(=O)c2c(C)sc(C)c2-c2n[nH]c(C)c2C)c(OC)c1`, for which the RP-LC retention time is 980 s.

`Cc1ccc(-c2cc3c(=O)n(Cc4noc(CN5CCCCCC5)n4)ccn3n2)c(C)c1` showed an RP-LC retention time of 724 s.

As to `CCN(CC)C(=O)CSc1c(C)cnc2c1c(=O)n(C)c(=O)n2C`, the RP-LC retention time stood at 752 s.

Regarding `CSc1ccc(NC(=O)C2CCN(C(=O)c3ncn4c3COC(c3ccc(F)cc3)C4)CC2)cc1` (stereo not given), the RP-LC retention time came out at 864 s.

Turning to `CS(=O)(=O)N1CCC(OC2CCN(C(=O)Nc3c(F)cccc3F)CC2)CC1`, the RP-LC retention time was 688 s.

On to `CCc1nc(-c2csc(S(=O)(=O)N3CCC(C(=O)NCc4ccccc4Cl)CC3)c2)no1`, for which the RP-LC retention time was determined as 984 s.

Compound `Cc1ccc(C)c(NC(=O)N2CCc3nc[nH]c3C2)c1` yielded an RP-LC retention time of 580 s.

Turning to `CCN(CC)C(=O)C1CCCN(c2ncnc3c2cnn3-c2ccccc2)C1` (stereo not given), the RP-LC retention time was found to be 881 s.

On to `COc1ccccc1-c1noc(C2CCCN2C(=O)c2cccs2)n1` (stereo not given), for which the RP-LC retention time was 849 s.

The compound `Cc1ccc(-c2cn3c(n2)N(C(=O)c2cnn4cccnc24)CCC3)cc1` displayed an RP-LC retention time of 613 s.

The compound `CCOC(=O)Cc1cc(=O)c2cc(C)ccc2[nH]1` yielded an RP-LC retention time of 695 s.

`CCCC(=O)Nc1nc(-c2ccc3c(c2)N(CCC)C(=O)CO3)cs1` gave an RP-LC retention time of 935 s.

As to `CCCOc1ccc(C(=O)Nc2nnc(SCc3nnc(-c4ccccc4C)o3)s2)cc1`, the RP-LC retention time turned out to be 1110 s.

In turn, `CC(C)N1C(=O)c2cccnc2Sc2cc(NC(=O)c3c(F)cccc3F)ccc21` registered an RP-LC retention time of 865 s.

The compound `Cn1nc(-c2nc(C3CC3)no2)c2c1CCN(C(=O)c1cc(F)ccc1Cl)C2` displayed an RP-LC retention time of 842 s.

`COc1ccc2[nH]cc(CCNC(=O)Cn3c4ccccc4c4cnn(C)c(=O)c43)c2c1`: the RP-LC retention time worked out at 767 s.

Take `O=C(CSc1ccc(NC(=O)c2cccs2)nn1)Nc1cccc(Cl)c1Cl`: the RP-LC retention time came out at 942 s.

For the compound `CC(=O)Nc1ccc(C2(C(=O)NCc3ccc(Cl)cc3)CCC2)cc1`, the RP-LC retention time came out at 785 s.

Compound `O=S(=O)(Nc1ccc(N2CCOCC2)cc1)C1CC1` returned an RP-LC retention time of 623 s.

In turn, `CC(=O)N1c2ccc(S(=O)(=O)N3CCCCCC3)cc2CC1C(=O)NC(C)c1ccccc1` (stereo not given) came in with an RP-LC retention time of 925 s.

`CCN(CC)C(=O)N1CCO[C@@H](COc2ccccn2)[C@@H]1c1ccccc1` gave an RP-LC retention time of 898 s.
